According to patent publication US6890951B2, “Treatment of addiction and addiction-related behavior” (Brookhaven Science Associates LLC, priority 1998, dated 2005):
Entries after “also recorded” stand apart in the source; their conditions may differ. Read-outs that look alike come from different tables or passages of the source.

Tests used:
[1] = test system: synaptic DA ([11C]-raclopride binding, corpus striatum); experiment: Primate PET: [11C]-raclopride DV ratio after cocaine challenge; assay type: in vivo, baboons (Papio anubis); details: Group 2: cocaine hydrochloride 0.5, 1.0 or 2.0 mg/kg, 5 or 30 minutes prior to second [11C]-raclopride injection
Description: Arterial blood samples were obtained throughout the study and selected plasma samples were analyzed for the presence of unchanged radio tracer carbon-11. Animals were not removed from the gantry between isotope injections. Regions of interest (ROI's) were drawn directly on the PET images. Briefly, the corpus striatum was outlined, bilaterally, on every transaxial slice upon which it appeared. The cerebellar ROI was drawn across the midline at the level of the cerebellar vermis. ROI's from the first study were then copied directly onto the corresponding slice from the second. By examining placement of the ROI's on the second scan changes could be made, if necessary, in ROI position only. This multi planar method of analysis reduced differences that may arise due to movement of the animal within the gantry during the scanning interval.
A graphical method for determining the distribution volume (DV) was developed previously for the kinetic analysis of the [^11C]-raclopride data. The DV ratio was the most reproducible measure of raclopride uptake. The ratio is the DV from a receptor-rich region (corpus striatum) to the DV of a non-receptor region (cerebellum). The free receptor concentration was directly proportional to the DV ratio of 1. […]

male Sprague-Dawley rats = assay type: in vivo
Source text: In all rodent studies, male Sprague-Dawley rats were used (200-225 g, Taconic farms, Germantown, N.Y.). Animals were allowed to acclimate to the animal housing facility for at least 5 days prior to beginning the experiments. […] The conditioning procedure for the acquisition phase consisted of 12 sessions carried out consecutively over 12 days.
The animals in each group were randomly assigned to a 2×2 factorial design with one factor being the pairing chamber and the other factor being the order of conditioning. The animals that received either saline or cocaine were injected and confined to the appropriate compartment for 30 minutes.
[…] The amount of time spent in each chamber was recorded using an automated infrared beam electronically coupled to a timer.
In this example the procedure outlined in Section 2 of Materials and Methods was followed.

freely moving rats = experiment: Cocaine-induced stereotypy after a sensitizing regimen of cocaine; assay type: in vivo
Description: The phenomenon of sensitization is observed with virtually all drugs of addiction. Sensitization is believed to play a role in the etiology of addiction.
Animals received 15 mg/kg i.p. of cocaine and stereotypy was determined in standard locomotor cages. For 6 consecutive days, animals received 15 mg/kg i.p. of cocaine once a day in their home cages. Eight days later, animals were rechallenged with 15 mg/kg i.p. of cocaine and stereotypy was determined. A five point rating scale was used to assess stereotypy and the rater was blind to the treatment received by each animal.

NAc DA = experiment: Microdialysis: cocaine/heroin (speedball) induced increases in NAc DA; assay type: in vivo, rats; details: cocaine 20 mg/kg i.p. or heroin 0.5 mg/kg i.p. alone
Description: In vivo microdialysis studies were performed using adult male Sprague-Dawley rats (Taconic Farms) as detailed previously (Morgan and Dewey, 1998). Cocaine, a dopamine reuptake inhibitor, (n=6-8) was administered (i.p.) at a dose of 20 mg/kg while heroin, an indirect dopamine releaser, (n=6-8) was administered (i.p.) at a dose of 0.5 mg/kg. In studies designed to investigate the synergistic effects of a cocaine/heroin combination (n=6-8), both drugs were administered at the identical dose used in the single drug studies. Alone cocaine produced a marked elevation in extracellular DA of approximately 380% above baseline values, 60 minutes following administration. DA returned to baseline within 120 minutes. In contrast, heroin increased NAc DA by only 70%, 60 minutes following administration, returning to baseline within 140 minutes. However, when combined, the two drugs produced an increase in NAc DA of approximately 1000%, 180 minutes following administration that had not returned to baseline values by 200 minutes after reaching peak values (FIG. 9).

[2] = test system: extracellular DA levels in the NACC; experiment: Microdialysis: cocaine-induced increases in extracellular DA, earlier studies
[3] = test system: extracellular dopamine in the nucleus accumbens; experiment: Microdialysis: Topiramate on cocaine-induced increases in nucleus accumbens dopamine; assay type: in vivo, rats; details: Topiramate 40 mg/kg i.p. 60 minutes prior to cocaine challenge
Description: In this example, we examined the effects of Topiramate sixty minutes prior to a cocaine challenge. The Topiramate was administered as an intraperitoneal injection, of 40 mg/kg, 60 minutes prior to a cocaine challenge.

[4] = test system: extracellular dopamine in the nucleus accumbens; experiment: Microdialysis: Topiramate on nicotine-induced increases in nucleus accumbens dopamine (Example 14); assay type: in vivo, rats; details: Rattus norvegicus, ip, 60 mins pretreatment
Description: These studies were performed using the identical experimental technique we have successfully used in more than 5000 microdialysis studies in rats. Adult male Sprague-Dawley rats (200-300 g, Taconic Farms) were anesthetized with ketamine HCl/xylazine (100 mg/kg), and siliconized guide cannulae are stereotactically implanted in the NACC (1.5 mm anterior to bregma, 1 mm lateral to bregma, and 5.6 mm ventral from the cortical surface, Paxinos and Watson, 2nd edition, 1986) two days prior to the microdialysis experiment.
On the day of the microdialysis study, rats are placed in a bowl at least 2 hrs prior to fraction collection. […]
Ten minute samples are collected within the injection loop (50 μl), injected online and analyzed until three sequential injections differ by less than 10 percent. […]
As stated previously, the first three data points that differ by less than 10% are used as the basal levels, and subsequent measurements made following a challenge drug are converted to a percentage of these values. All subsequent analyses are determined using the ‘percentage of basal’ values.
Locomotor activity was monitored throughout the entire period of study using an Optical Animal Activity Monitor (Bioanalytical Systems, West Lafayette, Ind.), which uses an optical sensor and records activity on both a chart recorder and via computer. […]

Sprague-Dawley rats = experiment: Gross locomotor activity (Optical Animal Activity Monitor); assay type: in vivo; details: for nicotine-induced increases in gross locomotor activity: topiramate 25 and 50 mg/kg
Source text: Locomotor activity was monitored throughout the entire period of study using an Optical Animal Activity Monitor (Bioanalytical Systems, West Lafayette, Ind.), which uses an optical sensor and records activity on both a chart recorder and via computer.
Locomotor data was collected with the Optical Animal Activity Monitor (OAAM, BAS, West Lafayette, Ind.). This system is attached to the microdialysis “Raturn®” machines and measures locomotor activity through an optical sensor attached directly to the animal. Output from the Raturn® gives a direct index of locomotor activity.

[5] = test system: mesolimbic extracellular dopamine (DA), NAcc; experiment: Microdialysis Example 15: extracellular dopamine after nicotine; assay type: in vivo
Description: (§1) Briefly, two days prior to the microdialysis experiments, siliconized guide cannulae were implanted targeting the NAcc (A=+1.5 mm, L=−1.0 mm, V=−5.6 mm). […] Dialysate samples were assayed for monoamine content by microbore high-pressure liquid chromatography (HPLC) coupled with electrochemical detection. […] Peak effects were analyzed with a one-way ANOVA, and post-hoc Bonferroni t-test of topiramate pretreated groups compared to saline pretreated controls provided ANOVA significance at a critical value of 0.05.

norepinephrine (NE) = experiment: Microdialysis Example 15: extracellular norepinephrine after nicotine; assay type: in vivo
Description: as §1

serotonin (5-HT) = experiment: Microdialysis Example 15: extracellular serotonin after nicotine; assay type: in vivo
Description: as §1

[6] = acquisition, Saline/Cocaine pairing, cocaine 20 mg/kg (Table IV)
[7] = acquisition, Saline/Cocaine pairing, cocaine 20 mg/kg (Table V)
[8] = acquisition, Saline/Cocaine pairing, cocaine 20 mg/kg (Table VI)
[9] = expression, Saline/Cocaine pairings, saline on test day (Table IX)
[10] = expression, Saline/Cocaine pairings, saline on test day (Table VII)
[11] = expression, Saline/Cocaine pairings, saline on test day (Table VIII)
[12] = expression, Saline/Cocaine pairings, saline on test day (Table X)

COC(=O)[C@H]1[C@@H](OC(=O)c2ccccc2)C[C@@H]2CC[C@H]1N2C [Cocaine]
reduction in the mean DV ratio [1]: greater than 30%
Time spent in chambers, Unpaired (male Sprague-Dawley rats; acquisition, Saline/Cocaine pairing, cocaine 20 mg/kg (Table III)): 3.9 ± 0.4 min
Time spent in chambers, Paired (male Sprague-Dawley rats; acquisition, Saline/Cocaine pairing, cocaine 20 mg/kg (Table III, 75 mg/kg GVG experiment)): 11.1 ± 0.3^4 min
Time spent in chambers, Paired (male Sprague-Dawley rats; [6]): 11.8 ± 0.5^4 mins
Time spent in chambers, Unpaired (male Sprague-Dawley rats; [6]): 3.2 ± 0.5 min
Time spent in chambers, Paired (male Sprague-Dawley rats; [7]): 11.6 ± 0.5^4 min
Time spent in chambers, Unpaired (male Sprague-Dawley rats; [7]): 3.4 ± 0.4^5 min
Time spent in chambers, Paired (male Sprague-Dawley rats; [8]): 11.2 ± 0.6^4 mins
Time spent in chambers, Unpaired (male Sprague-Dawley rats; [8]): .8 ± 0.5^5 mins
Time spent in chambers, Paired (male Sprague-Dawley rats; cocaine 5.0 mg/kg i.p.): 8.2 ± 0.4 min
Time spent in chambers, Unpaired (male Sprague-Dawley rats; cocaine 5.0 mg/kg i.p.): 6.8 ± 0.5 min
Time spent in chambers, Paired (male Sprague-Dawley rats; cocaine 10.0 mg/kg i.p.): 9.6 ± 0.5^2 mins
Time spent in chambers, Unpaired (male Sprague-Dawley rats; cocaine 10.0 mg/kg i.p.): 5.4 ± 0.3 min
Time spent in chambers, Paired (male Sprague-Dawley rats; cocaine 20.0 mg/kg i.p.): 11.8 ± 0.4^3 mins
Time spent in chambers, Unpaired (male Sprague-Dawley rats; cocaine 20.0 mg/kg i.p.): 3.2 ± 0.4^4 mins
Time spent in chambers, Paired (male Sprague-Dawley rats; [9]): 11.1 ± 0.5^3 min
Time spent in chambers, Unpaired (male Sprague-Dawley rats; [9]): 3.9 ± 0.4^4 min
Time spent in chambers, Paired (male Sprague-Dawley rats; [10]): 11.8 ± 0.5^3 min
Time spent in chambers, Unpaired (male Sprague-Dawley rats; [10]): 3.2 ± 0.5 min
Time spent in chambers, Paired (male Sprague-Dawley rats; [11]): 12.2 ± 0.6^3 min
Time spent in chambers, Unpaired (male Sprague-Dawley rats; [11]): 2.8 ± 0.5 min
Time spent in chambers, Paired (male Sprague-Dawley rats; [12]): 12.5 ± 0.8^3 min
Time spent in chambers, Unpaired (male Sprague-Dawley rats; [12]): 2.5 ± 0.6^4 min
Stereotypies on Day 15 (freely moving rats; cocaine 15 mg/kg i.p. rechallenge after sensitizing regimen, 1 ml/kg i.p. 0.9% NaCl before): 4.1 ± 0.5
Stereotypy score on Day 1 (freely moving rats; cocaine 15 mg/kg i.p., group later given 0.9% NaCl, five point rating scale): 2.5 ± 0.4
time for DA to return to baseline (NAc DA): ≤ 120 min
increase of NACC DA levels (rank order) [2]: 450%

CC1(C)O[C@@H]2[C@@H](CO[C@@]3(COS(N)(=O)=O)OC(C)(C)O[C@@H]23)O1 [Topiramate]
attenuation of cocaine-induced increases in extracellular dopamine [3]: approximately 15%
inhibition at 25 mg/kg ([4]; topiramate 25 mg/kg ip): ~50%
inhibition at 50 mg/kg ([4]; topiramate 50 mg/kg ip): ~70%
gross locomotor activity, topiramate alone (Sprague-Dawley rats; 25 and 50 mg/kg): did not alter gross locomotor activity; also recorded: did not attenuate gross locomotor activity
nicotine-induced increases in gross locomotor activity (Sprague-Dawley rats): significantly attenuate
nicotine-induced increases in gross locomotor activity (Sprague-Dawley rats; listed as topiramate): markedly attenuated
reduction of the NAcc DA response to acute nicotine ([5]; topiramate 25 mg/kg): 67%
reduction of the NAcc DA response to acute nicotine ([5]; topiramate 50 mg/kg): 83%
neurochemical sensitization (nicotine-induced NAcc DA release) ([5]; topiramate 75 mg/kg, animals pretreated with nicotine for 14 days): dramatically reduced
extracellular basal DA concentrations ([5]; topiramate alone): did not produce any significant changes
inhibition at 25 mg/kg (norepinephrine (NE); topiramate 25 mg/kg, read-out: inhibition of nicotine-induced increases in NE activity): 53%
inhibition at 50 mg/kg (norepinephrine (NE); topiramate 50 mg/kg, read-out: inhibition of nicotine-induced increases in NE activity): 60%
extracellular basal NE concentrations (norepinephrine (NE); topiramate alone): did not produce any significant changes
inhibition of nicotine-induced increases in 5-HT activity (serotonin (5-HT); topiramate 25 or 50 mg/kg): not
increase in basal 5-HT activity (serotonin (5-HT); topiramate alone, non-significant): 20%
